# Reference: US8329706B2, “Oxazolidinone derivatives” (Actelion Pharmaceuticals Ltd., priority 2009, dated 2012)
# Experiments:
# [1] = target: T1, human orexin-2 receptor (Homo sapiens, UniProt O43614); experiment: FLIPR intracellular calcium assay, orexin receptor antagonistic activity (OX2); type: cell-based; details: CHO cells expressing human orexin-2 receptor; agonist 3 nM orexin-A; normalized to on-plate reference; * geomean n = 5, *2 geomean n = 2
# T1 construct: expressed in transfected cells; host or cells: CHO cells (G418 selection)
# T1 sequence (O43614 1-444): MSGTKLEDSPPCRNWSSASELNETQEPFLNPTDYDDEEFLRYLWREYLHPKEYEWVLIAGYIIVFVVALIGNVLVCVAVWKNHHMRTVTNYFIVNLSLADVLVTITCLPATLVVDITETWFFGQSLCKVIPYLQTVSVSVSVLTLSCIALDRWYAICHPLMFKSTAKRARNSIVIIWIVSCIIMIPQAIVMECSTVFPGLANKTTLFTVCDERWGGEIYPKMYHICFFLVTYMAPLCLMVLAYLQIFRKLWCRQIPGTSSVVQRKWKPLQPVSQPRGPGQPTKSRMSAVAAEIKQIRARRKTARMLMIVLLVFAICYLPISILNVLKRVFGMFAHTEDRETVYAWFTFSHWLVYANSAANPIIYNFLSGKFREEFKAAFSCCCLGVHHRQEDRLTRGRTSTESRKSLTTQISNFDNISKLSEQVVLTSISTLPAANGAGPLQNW
# Description: (§1) The orexin receptor antagonistic activity of the compounds of formula (I) is determined in accordance with the following experimental method.
# (§2) Chinese hamster ovary (CHO) cells expressing the human orexin-1 receptor and the human orexin-2 receptor, respectively, are grown in culture medium (Ham F-12 with L-Glutamine) containing 300 μg/ml G418, 100 U/ml penicillin, 100 μg/ml streptomycin and 10% heat inactivated fetal calf serum (FCS). The cells are seeded at 20′000 cells/well into 384-well black clear bottom sterile plates (Greiner). The seeded plates are incubated overnight at 37° C. in 5% CO2.
# (§3) Human orexin-A as an agonist is prepared as 1 mM stock solution in MeOH:water (1:1), diluted in HBSS containing 0.1% bovine serum albumin (BSA), NaHCO3: 0.375 g/l and 20 mM HEPES for use in the assay at a final concentration of 3 nM.
# (§4) Antagonists are prepared as 10 mM stock solution in DMSO, then diluted in 384-well plates using DMSO followed by a transfer of the dilutions into in HBSS containing 0.1% bovine serum albumin (BSA), NaHCO3: 0.375 g/l and 20 mM HEPES. On the day of the assay, 50 μl of staining buffer (HBSS containing 1% FCS, 20 mM HEPES, NaHCO3: 0.375 g/l, 5 mM probenecid (Sigma) and 3 μM of the fluorescent calcium indicator fluo-4 AM (1 mM stock solution in DMSO, containing 10% pluronic) is added to each well. The 384-well cell-plates are incubated for 50 min at 37° C. in 5% CO2 followed by equilibration at rt for 30-120 min before measurement.
# (§5) Within the Fluorescent Imaging Plate Reader (FLIPR Tetra, Molecular Devices), antagonists are added to the plate in a volume of 10 μl/well, incubated for 10 min and finally 10 μl/well of agonist is added. Fluorescence is measured for each well at 1 second intervals, and the height of each fluorescence peak is compared to the height of the fluorescence peak induced by 3 nM orexin-A with vehicle in place of antagonist. For each antagonist, the IC50 value (the concentration of compound needed to inhibit 50% of the agonistic response) is determined and normalized using the obtained IC50 value of a on-plate reference compound. Optimized conditions were achieved by adjustment of pipetting speed and cell splitting regime. The calculated IC50 values of the compounds may fluctuate depending on the daily cellular assay performance. Fluctuations of this kind are known to those skilled in the art.
# [2] = target: T2, human orexin-1 receptor (Homo sapiens, UniProt O43613); experiment: FLIPR intracellular calcium assay, orexin receptor antagonistic activity (OX1); type: cell-based; details: CHO cells expressing human orexin-1 receptor; agonist 3 nM orexin-A; normalized to on-plate reference; * geomean n = 5, *2 geomean n = 2
# T2 construct: expressed in transfected cells; host or cells: CHO cells (G418 selection)
# T2 sequence (O43613 1-425): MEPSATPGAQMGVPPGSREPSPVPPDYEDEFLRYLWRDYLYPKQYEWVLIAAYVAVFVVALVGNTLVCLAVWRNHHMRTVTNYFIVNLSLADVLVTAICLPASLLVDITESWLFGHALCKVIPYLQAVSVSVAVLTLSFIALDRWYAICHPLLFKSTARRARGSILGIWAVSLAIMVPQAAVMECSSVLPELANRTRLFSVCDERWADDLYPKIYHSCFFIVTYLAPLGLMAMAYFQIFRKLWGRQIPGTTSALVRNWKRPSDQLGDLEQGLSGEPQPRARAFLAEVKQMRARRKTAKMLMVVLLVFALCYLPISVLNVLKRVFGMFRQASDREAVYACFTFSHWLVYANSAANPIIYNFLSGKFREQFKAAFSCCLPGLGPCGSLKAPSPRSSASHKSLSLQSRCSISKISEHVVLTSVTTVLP
# Description: as §1, §2, §3, §4, §5
Compound,IC50 [1] [nM],IC50 [2] [nM]
"CCOc1ccccc1C1OCC(=O)N1Cc1c(F)ccc(F)c1Cl (stereo not drawn) [Example 16, 3-(2-Chloro-3,6-difluoro-benzyl)-2-(2-ethoxy-phenyl)-oxazolidin-4-one]",3810,590
"COc1cccc(OC)c1C1OCC(=O)N1Cc1ccc(Oc2ccccc2)cc1 (stereo not drawn) [Example 47, 2-(2,6-Dimethoxy-phenyl)-3-(4-phenoxy-benzyl)-oxazolidin-4-one]",68,1180
"COc1cccc(OC)c1C1OCC(=O)N1Cc1ccc(OC(F)(F)F)c(Cl)c1 (stereo not drawn) [Example 40, 3-(3-Chloro-4-trifluoromethoxy-benzyl)-2-(2,6-dimethoxy-phenyl)-oxazolidin-4-one]",29,198
"COc1cccc(OC)c1C1OC(C)(C)C(=O)N1Cc1nc2ccccc2n1C (stereo not drawn) [Example 70, 2-(2,6-Dimethoxy-phenyl)-5,5-dimethyl-3-(1-methyl-1H-benzoimidazol-2-ylmethyl)-oxazolidin-4-one]",1300,65
"COc1cccc(OC)c1C1OCC(=O)N1Cc1ccc(F)c(Cl)c1 (stereo not drawn) [Example 36, 3-(3-Chloro-4-fluoro-benzyl)-2-(2,6-dimethoxy-phenyl)-oxazolidin-4-one]",632,1340
"COc1cccc(C)c1C1OC(C)(C)C(=O)N1Cc1ccc(OC(F)(F)F)c(Cl)c1 (stereo not drawn) [Example 83, 3-(3-Chloro-4-trifluoromethoxy-benzyl)-2-(2-methoxy-6-methyl-phenyl)-5,5-dimethyl-oxazolidin-4-one]",69,133
"COc1cccc(OC)c1C1OCC(=O)N1Cc1cccc(OC(F)(F)F)c1 (stereo not drawn) [Example 35, 2-(2,6-Dimethoxy-phenyl)-3-(3-trifluoromethoxy-benzyl)-oxazolidin-4-one]",618,2890
"COc1cccc(OC)c1C1OC(C)(C)C(=O)N1Cc1ccc(Oc2cnccn2)cc1 (stereo not drawn) [Example 92, 2-(2,6-Dimethoxy-phenyl)-5,5-dimethyl-3-[4-(pyrazin-2-yloxy)-benzyl]-oxazolidin-4-one]",3060,1210
"COc1cccc(OC)c1C1OCC(=O)N1Cc1ccc(C(F)(F)F)cc1 (stereo not drawn) [Example 32, 2-(2,6-Dimethoxy-phenyl)-3-(4-trifluoromethyl-benzyl)-oxazolidin-4-one]",413,> 10000
"COc1cccc(OC)c1C1OCC(=O)N1Cc1c(C)cccc1C (stereo not drawn) [Example 44, 2-(2,6-Dimethoxy-phenyl)-3-(2,6-dimethyl-benzyl)-oxazolidin-4-one]",467,1760
"COc1cccc(OC)c1C1OC(C)(C)C(=O)N1Cc1ccc(Oc2ccc(C)nn2)cc1 (stereo not drawn) [Example 93, 2-(2,6-Dimethoxy-phenyl)-5,5-dimethyl-3-[4-(6-methyl-pyridazin-3-yloxy)-benzyl]-oxazolidin-4-one]",8330,1200
"COc1cccc(OC)c1C1OCC(=O)N1Cc1ccc(Cl)c(F)c1 (stereo not drawn) [Example 39, 3-(4-Chloro-3-fluoro-benzyl)-2-(2,6-dimethoxy-phenyl)-oxazolidin-4-one]",795,4100
"CCOc1ccccc1C1OCC(=O)N1Cc1ccc(OC(F)(F)F)cc1 (stereo not drawn) [Example 6, 2-(2-Ethoxy-phenyl)-3-(4-trifluoromethoxy-benzyl)-oxazolidin-4-one]",55,> 10000
"COc1cccc(OC)c1C1OC(C)(C)C(=O)N1Cc1ccc(OCC2CC2)cc1 (stereo not drawn) [Example 78, 3-(4-Cyclopropylmethoxy-benzyl)-2-(2,6-dimethoxy-phenyl)-5,5-dimethyl-oxazolidin-4-one]",620,472
"COc1cccc(OC)c1C1OC(C)(C)C(=O)N1Cc1nc2ccccc2s1 (stereo not drawn) [Example 64, 3-Benzothiazol-2-ylmethyl-2-(2,6-dimethoxy-phenyl)-5,5-dimethyl-oxazolidin-4-one]",222,411
"COc1cccc(OC)c1C1O[C@@H](C)C(=O)N1Cc1ccc2ccccc2c1 (stereo partly drawn) [Example 66, 2-(2,6-Dimethoxy-phenyl)-(S)-5-methyl-3-naphthalen-2-ylmethyl-oxazolidin-4-one]",266,421

# Continued by falling IC50 [1], values first:
IC50 [1] [nM],IC50 [2] [nM],Compound
1940,139,"CCOc1ccc(CN2C(=O)C(C)(C)OC2c2c(OC)cccc2OC)cc1 (stereo not drawn) [Example 80, 2-(2,6-Dimethoxy-phenyl)-3-(4-ethoxy-benzyl)-5,5-dimethyl-oxazolidin-4-one]"
928,187,"COc1cccc(OC)c1C1OC(C)(C)C(=O)N1Cc1ccc(OC(F)F)cc1 (stereo not drawn) [Example 69, 3-(4-Difluoromethoxy-benzyl)-2-(2,6-dimethoxy-phenyl)-5,5-dimethyl-oxazolidin-4-one]"
787,1840,"CCOc1ccccc1C1OCC(=O)N1Cc1c(Cl)cccc1Cl (stereo not drawn) [Example 23, 3-(2,6-Dichloro-benzyl)-2-(2-ethoxy-phenyl)-oxazolidin-4-one]"
484,114,"CCCOc1ccc(CN2C(=O)C(C)(C)OC2c2c(OC)cccc2OC)cc1 (stereo not drawn) [Example 77, 2-(2,6-Dimethoxy-phenyl)-5,5-dimethyl-3-(4-propoxy-benzyl)-oxazolidin-4-one]"
385,5410,"CCOc1ccccc1C1OCC(=O)N1Cc1cccc(C(F)(F)F)c1C (stereo not drawn) [Example 11, 2-(2-Ethoxy-phenyl)-3-(2-methyl-3-trifluoromethyl-benzyl)-oxazolidin-4-one]"
366,345,"COCCOc1cccc(OC)c1C1OC(C)(C)C(=O)N1Cc1ccc(Oc2ccccc2)cc1 (stereo not drawn) [Example 98, 2-[2-Methoxy-6-(2-methoxy-ethoxy)-phenyl]-5,5-dimethyl-3-(4-phenoxy-benzyl)-oxazolidin-4-one]"
133,25,"COc1cccc(OC)c1C1OC(C)(C)C(=O)N1Cc1ccc(OC(F)(F)F)c(Cl)c1 (stereo not drawn) [Example 58, 3-(3-Chloro-4-trifluoromethoxy-benzyl)-2-(2,6-dimethoxy-phenyl)-5,5-dimethyl-oxazolidin-4-one]"
120,10,"COc1cccc(OC(C)C)c1C1OC(C)(C)C(=O)N1Cc1ccc(Oc2ccccc2)cc1 (stereo not drawn) [Example 96, 2-(2-Isopropoxy-6-methoxy-phenyl)-5,5-dimethyl-3-(4-phenoxy-benzyl)-oxazolidin-4-one]"
111,164,"COc1cccc(OC)c1C1O[C@H](C)C(=O)N1Cc1ccc(OC(F)(F)F)c(Cl)c1 (stereo partly drawn) [Example 56, 3-(3-Chloro-4-trifluoromethoxy-benzyl)-2-(2,6-dimethoxy-phenyl)-(R)-5-methyl-oxazolidin-4-one]"
79,8740,"CCOc1ccccc1C1OCC(=O)N1Cc1ccc(F)c(Cl)c1 (stereo not drawn) [Example 9, 3-(3-Chloro-4-fluoro-benzyl)-2-(2-ethoxy-phenyl)-oxazolidin-4-one]"
65,2180,"COc1cccc(C(F)(F)F)c1C1OC(C)(C)C(=O)N1Cc1ccc(Oc2ccccc2)cc1 (stereo not drawn) [Example 86, 2-(2-Methoxy-6-trifluoromethyl-phenyl)-5,5-dimethyl-3-(4-phenoxy-benzyl)-oxazolidin-4-one]"
